Values quoted from earlier work in patent US20230219928A1, “PREPARATION METHOD FOR AROMATIC ETHER COMPOUND” (Jiangsu Yahong Meditech Co., Ltd., priority 2020, published 2023).

Legend:
[1] = background statement
[2] = human, phase II clinical trial conducted by Jiangsu Yahong Meditech in China

- water solubility [1]: very low
- biological half-life [2]: 1.22-1.44 hours
Compound: O=[N+]([O-])c1ccc(O)c2ncccc12 [nitroxoline]
